# Columns and labels:
# [1] = system: 786-0; assay: Growth inhibition of human 786-0 cells at 10 uM incubated for 48 hrs by sulforhodamine B assay relative to control; assay type: functional; settings: 786-0, 48 h, read-out: GI
# [2] = system: NCI-H322M; assay: Growth inhibition of human NCI-H322M cells at 10 uM incubated for 48 hrs by sulforhodamine B assay relative to control; assay type: functional; settings: read-out: GI
# [3] = system: MDA-MB-435; assay: Growth inhibition of human MDA-MB-435 cells at 10 uM incubated for 48 hrs by sulforhodamine B assay relative to control; assay type: functional; settings: MDA-MB-435, 48 h, read-out: GI
# [4] = system: DU-145; assay: Cytotoxicity against human DU145 cells incubated for 48 hrs by sulforhodamine B assay; assay type: functional; settings: DU-145, 48 h
# [5] = system: A549; assay: Induction of apoptosis in human A549 cells assessed as early apoptotic cells at 1.4 uM after 24 hrs by Annexin V/propidium iodide staining based flow cytometric analysis (reference value: 0.22%); assay type: functional
# [6] = system: NCI/ADR-RES; assay: Growth inhibition of human NCI/ADR-RES cells at 10 uM incubated for 48 hrs by sulforhodamine B assay relative to control; assay type: functional; settings: read-out: GI
# [7] = system: Hs-578T; assay: Cytotoxicity against human Hs 578T cells incubated for 48 hrs by sulforhodamine B assay; assay type: functional
# [8] = system: OVCAR-3; assay: Cytotoxicity against human OVCAR3 cells incubated for 48 hrs by sulforhodamine B assay; assay type: functional; settings: OVCAR-3, 48 h
# [9] = system: A549; assay: Cell cycle arrest in human A549 cells assessed as accumulation at G2 phase at 1.4 uM after 24 hrs by propidium iodide staining based flow cytometry (reference value: 4.19%); assay type: functional
# [10] = system: SNB-75; assay: Growth inhibition of human SNB75 cells at 10 uM incubated for 48 hrs by sulforhodamine B assay relative to control; assay type: functional; settings: SNB-75, 48 h, read-out: GI
# [11] = system: HT-29; assay: Antiproliferative activity against human HT-29 cells after 48 hrs by propidium iodide staining-based fluorometric analysis; assay type: functional, cell-based; settings: HT-29, 48 h
# [12] = system: KM12; assay: Growth inhibition of human KM12 cells at 10 uM incubated for 48 hrs by sulforhodamine B assay relative to control; assay type: functional; settings: KM12, 48 h, read-out: GI
# [13] = system: HT-29; assay: Growth inhibition of human HT-29 cells at 10 uM incubated for 48 hrs by sulforhodamine B assay relative to control; assay type: functional; settings: HT-29, 48 h, read-out: GI
# [14] = system: SF-539; assay: Growth inhibition of human SF539 cells at 10 uM incubated for 48 hrs by sulforhodamine B assay relative to control; assay type: functional; settings: SF-539, 48 h, read-out: GI
# [15] = system: SF-295; assay: Growth inhibition of human SF295 cells at 10 uM incubated for 48 hrs by sulforhodamine B assay relative to control; assay type: functional; settings: SF-295, 48 h, read-out: GI
# [16] = system: SF-539; assay: Cytotoxicity against human SF539 cells incubated for 48 hrs by sulforhodamine B assay; assay type: functional; settings: SF-539, 48 h
# [17] = system: SNB-19; assay: Growth inhibition of human SNB19 cells at 10 uM incubated for 48 hrs by sulforhodamine B assay relative to control; assay type: functional; settings: SNB-19, 48 h, read-out: GI
# [18] = system: PANC-1; assay: Antiproliferative activity against human PANC1 cells after 48 hrs by propidium iodide staining-based fluorometric analysis; assay type: functional, cell-based; settings: PANC-1, 48 h
# [19] = system: OVCAR-3; assay: Growth inhibition of human OVCAR3 cells at 10 uM incubated for 48 hrs by sulforhodamine B assay relative to control; assay type: functional; settings: OVCAR-3, 48 h, read-out: GI
# [20] = system: NCI-H23; assay: Growth inhibition of human NCI-H23 cells at 10 uM incubated for 48 hrs by sulforhodamine B assay relative to control; assay type: functional; settings: NCI-H23, 48 h, read-out: GI
# [21] = system: MDA-MB-468; assay: Growth inhibition of human MDA-MB-468 cells at 10 uM incubated for 48 hrs by sulforhodamine B assay relative to control; assay type: functional; settings: MDA-MB-468, 48 h, read-out: GI
# [22] = system: T47D; assay: Growth inhibition of human T47D cells at 10 uM incubated for 48 hrs by sulforhodamine B assay relative to control; assay type: functional; settings: read-out: GI
# [23] = system: HCT-116; assay: Growth inhibition of human HCT116 cells at 10 uM incubated for 48 hrs by sulforhodamine B assay relative to control; assay type: functional; settings: HCT-116, 48 h, read-out: GI
# [24] = system: SF-268; assay: Growth inhibition of human SF268 cells at 10 uM incubated for 48 hrs by sulforhodamine B assay relative to control; assay type: functional; settings: SF-268, 48 h, read-out: GI
# [25] = system: EKVX; assay: Growth inhibition of human EKVX cells at 10 uM incubated for 48 hrs by sulforhodamine B assay relative to control; assay type: functional; settings: read-out: GI
# [26] = system: M14; assay: Growth inhibition of human M14 cells at 10 uM incubated for 48 hrs by sulforhodamine B assay relative to control; assay type: functional; settings: M14, 48 h, read-out: GI
# [27] = system: NCI-H322M; assay: Cytotoxicity against human NCI-H322M cells incubated for 48 hrs by sulforhodamine B assay; assay type: functional
# [28] = system: SW-620; assay: Cytotoxicity against human SW620 cells incubated for 48 hrs by sulforhodamine B assay; assay type: functional; settings: SW-620, 48 h
# [29] = system: RXF 393; assay: Growth inhibition of human RXF393 cells at 10 uM incubated for 48 hrs by sulforhodamine B assay relative to control; assay type: functional; settings: RXF 393, 48 h, read-out: GI
# [30] = system: UO-31; assay: Cytotoxicity against human UO31 cells incubated for 48 hrs by sulforhodamine B assay; assay type: functional; settings: UO-31, 48 h
# [31] = system: T47D; assay: Cytotoxicity against human T47D cells incubated for 48 hrs by sulforhodamine B assay; assay type: functional
# [32] = system: OVCAR-4; assay: Growth inhibition of human OVCAR4 cells at 10 uM incubated for 48 hrs by sulforhodamine B assay relative to control; assay type: functional; settings: OVCAR-4, 48 h, read-out: GI
# [33] = system: HOP-62; assay: Growth inhibition of human HOP62 cells at 10 uM incubated for 48 hrs by sulforhodamine B assay relative to control; assay type: functional; settings: HOP-62, 48 h, read-out: GI
# [34] = system: SK-MEL-28; assay: Growth inhibition of human SK-MEL-28 cells at 10 uM incubated for 48 hrs by sulforhodamine B assay relative to control; assay type: functional; settings: SK-MEL-28, 48 h, read-out: GI
# [35] = system: SK-MEL-2; assay: Growth inhibition of human SK-MEL-2 cells at 10 uM incubated for 48 hrs by sulforhodamine B assay relative to control; assay type: functional; settings: SK-MEL-2, 48 h, read-out: GI
# [36] = system: BT-549; assay: Growth inhibition of human BT549 cells at 10 uM incubated for 48 hrs by sulforhodamine B assay relative to control; assay type: functional; settings: BT-549, 48 h, read-out: GI
# [37] = read-out: LC50 (the source's name)
smiles,measurement,setting,value
COc1ccc(-c2nc3sc(-c4ccc(Cl)cc4)cn3n2)cc1,inhibition of growth at 10 µM,[1],-75.8%
same,inhibition of growth at 10 µM,[2],82.2%
same,inhibition of growth at 10 µM,[3],25%
same,GI50,[4],> 50 µM
same,TGI,[4],> 50 µM
same,CC50,[4]; [37],> 50 µM
same,Activity,[5],4.23%
same,inhibition of growth at 10 µM,[6],54.4%
same,GI50,[7],2.31 µM
same,TGI,[7],> 50 µM
same,CC50,[7]; [37],> 50 µM
same,GI50,[8],1.72 µM
same,TGI,[8],7.2 µM
same,CC50,[8]; [37],> 50 µM
same,Activity,[9],14.36%
same,inhibition of growth at 10 µM,[10],-1.66%
same,IC50,[11],2.4 µM
same,inhibition of growth at 10 µM,[12],45.3%
same,inhibition of growth at 10 µM,[13],82.7%
same,inhibition of growth at 10 µM,[14],84.6%
same,inhibition of growth at 10 µM,[15],75.8%
same,GI50,[16],1.85 µM
same,TGI,[16],21.5 µM
same,CC50,[16]; [37],> 50 µM
same,inhibition of growth at 10 µM,[17],-1.95%
same,IC50,[18],2.8 µM
same,inhibition of growth at 10 µM,[19],75.3%
same,inhibition of growth at 10 µM,[20],41.5%
same,inhibition of growth at 10 µM,[21],66.6%
same,inhibition of growth at 10 µM,[22],45.1%
same,inhibition of growth at 10 µM,[23],-16%
same,inhibition of growth at 10 µM,[24],34.9%
same,inhibition of growth at 10 µM,[25],52.5%
same,inhibition of growth at 10 µM,[26],9%
same,GI50,[27],1.76 µM
same,TGI,[27],> 50 µM
same,CC50,[27]; [37],> 50 µM
same,GI50,[28],5.51 µM
same,TGI,[28],> 50 µM
same,CC50,[28]; [37],> 50 µM
same,inhibition of growth at 10 µM,[29],41%
same,GI50,[30],1.19 µM
same,TGI,[30],4.51 µM
same,CC50,[30]; [37],30.6 µM
same,GI50,[31],3.54 µM
same,TGI,[31],> 50 µM
same,CC50,[31]; [37],> 50 µM
same,inhibition of growth at 10 µM,[32],-63.3%
same,inhibition of growth at 10 µM,[33],60.4%
COc1ccc(-c2nc3sc(-c4ccccc4)cn3n2)cc1,inhibition of growth at 10 µM,[1],11%
same,inhibition of growth at 10 µM,[2],14%
same,inhibition of growth at 10 µM,[3],-8.6%
same,inhibition of growth at 10 µM,[34],32%
same,inhibition of growth at 10 µM,[6],66%
same,inhibition of growth at 10 µM,[10],34%
same,IC50,[11],6.6 µM
same,inhibition of growth at 10 µM,[12],70%
same,inhibition of growth at 10 µM,[13],70%
same,inhibition of growth at 10 µM,[14],24%
same,inhibition of growth at 10 µM,[15],38%
same,inhibition of growth at 10 µM,[17],34%
same,IC50,[18],4.5 µM
same,inhibition of growth at 10 µM,[35],40%
same,inhibition of growth at 10 µM,[19],41%
same,inhibition of growth at 10 µM,[20],28%
same,inhibition of growth at 10 µM,[21],81%
same,inhibition of growth at 10 µM,[22],65%
same,inhibition of growth at 10 µM,[23],60%
same,inhibition of growth at 10 µM,[24],28%
same,inhibition of growth at 10 µM,[25],37%
same,inhibition of growth at 10 µM,[26],71%
same,inhibition of growth at 10 µM,[36],26%
same,inhibition of growth at 10 µM,[29],24%
same,inhibition of growth at 10 µM,[32],37%
same,inhibition of growth at 10 µM,[33],49%
